# Test results reported in ChEMBL document CHEMBL3769338, “Tricyclic phenothiazine and phenoselenazine derivatives as potential multi-targeting agents to treat Alzheimer's disease” (Medchemcomm, 2015).
# Active and inactive are the calls of the source. The calls are words filed in the database; no cut-off is given here.
# Assays:
# Cholinesterase [1] = target: T1, Cholinesterase (Homo sapiens, UniProt P06276)
# Description: Inhibition of human BuChE using S-butyrylthiocholine iodide as substrate preincubated for 5 mins followed by substrate addition measured after 60 to 300 sec by Ellman's method
# Acetylcholinesterase = Acetylcholinesterase (Homo sapiens, UniProt P22303); experiment: Inhibition of human AChE using acetylthiocholine iodide as substrate preincubated for 5 mins followed by substrate addition measured after 60 to 300 sec by Ellman's method
# Chain of Acetylcholinesterase (P22303 whole entry): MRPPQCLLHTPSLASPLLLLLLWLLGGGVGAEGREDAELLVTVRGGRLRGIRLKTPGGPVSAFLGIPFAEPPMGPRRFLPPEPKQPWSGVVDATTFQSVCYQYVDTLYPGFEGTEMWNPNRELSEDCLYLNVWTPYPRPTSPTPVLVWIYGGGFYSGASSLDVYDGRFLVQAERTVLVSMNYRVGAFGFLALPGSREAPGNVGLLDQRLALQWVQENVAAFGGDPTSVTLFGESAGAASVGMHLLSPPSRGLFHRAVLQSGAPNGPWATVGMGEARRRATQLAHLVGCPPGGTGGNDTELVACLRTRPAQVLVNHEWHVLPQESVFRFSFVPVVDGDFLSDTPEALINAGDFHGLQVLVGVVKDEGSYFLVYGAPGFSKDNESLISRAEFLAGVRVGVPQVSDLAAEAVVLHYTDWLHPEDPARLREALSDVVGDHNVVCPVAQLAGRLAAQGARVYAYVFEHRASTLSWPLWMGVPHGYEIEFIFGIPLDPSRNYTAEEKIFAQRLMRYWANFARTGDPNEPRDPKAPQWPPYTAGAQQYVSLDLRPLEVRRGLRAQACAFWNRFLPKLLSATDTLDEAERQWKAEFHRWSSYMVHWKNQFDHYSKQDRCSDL
# [2] = target: Amyloid-beta precursor protein (Homo sapiens) (UniProt P05067); experiment: Inhibition of amyloid beta (1-42) self-induced aggregation (unknown origin) at 25 uM measured every 5 mins for 16 hrs by thioflavin T fluorescence method relative to control
# Chain of Amyloid-beta precursor protein (Homo sapiens) (P05067 whole entry): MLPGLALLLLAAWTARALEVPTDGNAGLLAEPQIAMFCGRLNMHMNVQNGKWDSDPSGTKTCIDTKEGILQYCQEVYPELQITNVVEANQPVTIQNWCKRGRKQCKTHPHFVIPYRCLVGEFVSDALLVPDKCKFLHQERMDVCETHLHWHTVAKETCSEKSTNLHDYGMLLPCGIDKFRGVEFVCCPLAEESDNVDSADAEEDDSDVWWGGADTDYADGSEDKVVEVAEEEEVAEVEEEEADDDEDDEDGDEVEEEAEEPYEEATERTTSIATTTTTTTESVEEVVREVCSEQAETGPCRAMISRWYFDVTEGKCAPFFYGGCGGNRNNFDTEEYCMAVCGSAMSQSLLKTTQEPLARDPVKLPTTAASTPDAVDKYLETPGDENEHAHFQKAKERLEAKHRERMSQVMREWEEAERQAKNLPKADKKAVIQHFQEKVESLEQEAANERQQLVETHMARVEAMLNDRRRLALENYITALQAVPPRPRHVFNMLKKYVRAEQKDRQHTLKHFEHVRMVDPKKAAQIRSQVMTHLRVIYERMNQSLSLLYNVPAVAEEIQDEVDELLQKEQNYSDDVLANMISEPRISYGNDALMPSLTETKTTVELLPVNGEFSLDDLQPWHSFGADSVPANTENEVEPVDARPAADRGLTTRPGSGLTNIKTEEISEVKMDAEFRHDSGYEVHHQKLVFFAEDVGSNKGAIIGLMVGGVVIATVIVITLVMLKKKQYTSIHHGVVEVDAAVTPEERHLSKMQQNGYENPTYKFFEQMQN
# [3] = Cytotoxicity against human SH-SY5Y cells assessed as cell viability at 50 uM after 24 hrs by MTT assay relative to untreated control; type: cell-based; settings: read-out: Activity
# [4] = target: Amyloid-beta precursor protein (Homo sapiens) (UniProt P05067); experiment: Inhibition of amyloid beta (1-42) self-induced aggregation (unknown origin) at 10 uM measured every 5 mins for 16 hrs by thioflavin T fluorescence method relative to control
# [5] = Antioxidant activity assessed as DPPH free radical scavenging activity at 50 uM incubated for 60 mins in dark relative to control; type: physicochemical; settings: 1 h
# [6] = target: Amyloid-beta precursor protein (Homo sapiens) (UniProt P05067); experiment: Inhibition of amyloid beta (1-42) self-induced aggregation (unknown origin) at 5 uM measured every 5 mins for 16 hrs by thioflavin T fluorescence method relative to control
# [7] = target: Amyloid-beta precursor protein (Homo sapiens) (UniProt P05067); experiment: Inhibition of amyloid beta (1-42) self-induced aggregation (unknown origin) at 1 uM measured every 5 mins for 16 hrs by thioflavin T fluorescence method relative to control
# [8] = target: Amyloid-beta precursor protein (Homo sapiens) (UniProt P05067); experiment: Inhibition of amyloid beta (1-42) self-induced aggregation (unknown origin) measured every 5 mins for 16 hrs by thioflavin T fluorescence method
# Cholinesterase [9] = target: T1, Cholinesterase; experiment: Potency index, ratio of galantamine IC50 to compound IC50 for inhibition of human BuChE
# T1 sequence (P06276 whole entry): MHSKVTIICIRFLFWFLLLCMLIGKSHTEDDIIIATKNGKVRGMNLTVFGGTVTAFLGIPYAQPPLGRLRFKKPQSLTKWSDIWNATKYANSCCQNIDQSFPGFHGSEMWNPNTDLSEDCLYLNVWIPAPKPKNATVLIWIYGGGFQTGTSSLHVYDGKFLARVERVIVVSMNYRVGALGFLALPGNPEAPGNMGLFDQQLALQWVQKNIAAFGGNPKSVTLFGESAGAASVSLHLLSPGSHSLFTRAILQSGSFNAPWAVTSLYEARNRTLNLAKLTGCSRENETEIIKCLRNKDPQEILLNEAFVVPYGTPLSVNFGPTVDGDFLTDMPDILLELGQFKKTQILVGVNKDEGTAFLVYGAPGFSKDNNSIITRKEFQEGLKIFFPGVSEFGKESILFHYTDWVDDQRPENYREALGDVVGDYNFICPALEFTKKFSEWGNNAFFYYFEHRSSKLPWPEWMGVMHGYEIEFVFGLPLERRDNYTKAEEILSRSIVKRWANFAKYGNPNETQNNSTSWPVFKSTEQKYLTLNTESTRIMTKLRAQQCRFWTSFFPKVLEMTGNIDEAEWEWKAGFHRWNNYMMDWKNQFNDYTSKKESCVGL
Compound,IC50 (Cholinesterase [1]) [µM],IC50 (Acetylcholinesterase) [µM],inhibition [2],"viability at 24 h, 50 µM [3] [%]",inhibition [4],inhibition (INH) [5] [%],inhibition [6],inhibition [7],inhibition [8],Ratio IC50 (Cholinesterase [9])
O=C(Cc1ccccc1)N1c2ccccc2[Se]c2ccccc21,11,6.4,,,,,,,,
COc1cccc(C(=O)N2c3ccccc3Sc3ccccc32)c1,25.5,6.2,,,,,,,,
O=C(CCc1ccccc1)N1c2ccccc2Sc2ccccc21,51,7.1,,,,,,,,
COc1cccc(C(=O)N2c3ccccc3[Se]c3ccccc32)c1,9.6,6.2,,,,,,,,
COc1cccc(C(=O)N2c3ccccc3[Se]c3ccc(Cl)cc32)c1,19.3,5.9,,,,,,,,
COc1ccc(C(=O)N2c3ccccc3Sc3ccc(Cl)cc32)cc1OC,32.6,6.4,5.9%,63.3,6.5%,46.5,4.5%,6.2%,,
COc1ccc(C(=O)N2c3ccccc3Sc3ccccc32)cc1,53,6.3,,,,,,,,
O=C(CCc1ccccc1)N1c2ccccc2[Se]c2ccc(Cl)cc21,40,6.3,,,,,,,,
O=C(CCc1ccccc1)N1c2ccccc2Sc2ccc(Cl)cc21,5,7.9,,,,,,,,
O=C(c1ccccc1)N1c2ccccc2Sc2ccc(Cl)cc21,9.3,9.9,,,,,,,,
O=S(=O)(O)c1cc(S(=O)(=O)O)c2c(/N=N/c3ccccc3)c(O)ccc2c1,,,57.2%,,31%,,20.4%,8.6%,,
COc1ccc(C(=O)N2c3ccccc3[Se]c3ccccc32)cc1,11.1,4.6,,,,,,,,
O=C(c1ccccc1)N1c2ccccc2Sc2ccccc21,> 100,8,,,,,,,,
Clc1ccc2c(c1)Nc1ccccc1[Se]2,4.7,6.3,45%,43,25.1%,73.2,18.5%,14.5%,,
Cc1c(C)c2c(c(C)c1O)CCC(C)(C(=O)O)O2 (configuration not stated) [TROLOX],,,,,,99.2,,,,
O=C(CCc1ccccc1)N1c2ccccc2[Se]c2ccccc21,38,6.7,,,,,,,,

Compound,IC50 (Cholinesterase [1]) [µM],IC50 (Acetylcholinesterase) [µM],inhibition [2],"viability at 24 h, 50 µM [3] [%]",inhibition [4],inhibition (INH) [5] [%],inhibition [6],inhibition [7],inhibition [8],Ratio IC50 (Cholinesterase [9])
COc1ccc(C(=O)N2c3ccccc3[Se]c3ccccc32)cc1OC,9.1,5.1,11.1%,76,8.7%,39,5.7%,6.3%,,
c1ccc2c(c1)Nc1ccccc1S2 [PHENOTHIAZINE],5.8,7.3,62%,63.3,59.1%,92.1,37.2%,18.3%,Dose-dependent effect,11
c1ccc2c(c1)Nc1ccccc1[Se]2,3,5.6,45.6%,76,30.7%,84.4,24.1%,16.3%,Dose-dependent effect,22
Clc1ccc2c(c1)Nc1ccccc1S2,19.2,7.4,60.8%,63.3,33.7%,76.4,22%,10.3%,,
O=C(Cc1ccccc1)N1c2ccccc2Sc2ccccc21,38.3,7.4,,,,,,,,
COc1ccc(C(=O)N2c3ccccc3Sc3ccc(Cl)cc32)cc1,5.3,5.9,,,,,,,,
O=C(c1ccccc1)N1c2ccccc2[Se]c2ccccc21,22.7,5.4,,,,,,,,
COc1cccc(C(=O)N2c3ccccc3Sc3ccc(Cl)cc32)c1,30.8,4.6,,,,,,,,
COc1ccc(C(=O)N2c3ccccc3Sc3ccccc32)cc1OC,45,5.8,inactive,63.3,inactive,44.3,inactive,inactive,,
COc1ccc(C(=O)N2c3ccccc3[Se]c3ccc(Cl)cc32)cc1OC,5.7,6.2,5.9%,76,9.1%,38.3,7.9%,8.4%,,
O=c1c2ccccc2[se]n1-c1ccccc1 [EBSELEN],4.6,6.2,,53.9,,34.7,,,,
O=C(c1ccccc1)N1c2ccccc2[Se]c2ccc(Cl)cc21,3.8,6,,,,,,,,
O=C(Cc1ccccc1)N1c2ccccc2Sc2ccc(Cl)cc21,3.6,7.5,,,,,,,,
O=C(Cc1ccccc1)N1c2ccccc2[Se]c2ccc(Cl)cc21,5,6.5,,,,,,,,
COc1ccc(C(=O)N2c3ccccc3[Se]c3ccc(Cl)cc32)cc1,4.9,5.8,,,,,,,,
